Assays:
[1] = pH 7.9
Method: Fluorescence-based experiments with 3a–3e were carried out to estimate their affinity to dNCS-1.

[2] = tested on: Cortical neurons from E14 wild-type mice; test: Toxicity in primary cultured neurons (percentage of picnotic bodies); assay type: cell-based; conditions: 24 h
From the text: Mean ± SD from three independent experiments. The curves represent the least squares fitting of the experimental data to a 1:1 stoichiometry. To properly compare the different curves, intensities were normalized and represented. […] Input represents 1/10 cell lysates before IP. Quantifications of each lane from four experiments are shown below the blots. Bars represent percentage of NCS-1/ Ric8a binding (mean ± SD) normalized to DMSO. […] CNS + (green) for Pe > 4.47 × 10^−6 cm s^−1, CNS- (red) for compounds with Pe < 4.47 × 10^–6 cm s^−1. […] Mean ± SD from three independent experiments. […] Then, the percentage of picnotic bodies over the total nuclei was analyzed. Mean ± SD from three independent experiments. Paired two-tailed Student’s test ***P˂0.001; **P < 0.01; *P < 0.05. Source data are provided as a Source Data file. IP immunoprecipitation, WB western blot
Finally, cell toxicity in neurons was quantified as percentage of picnotic bodies for 3b (Fig. 6d).
Cortical neurons were obtained from E14 wt mice (C57BL6J). Mice were maintained in accordance to European law and following Hospital Ramón y Cajal´s animal guidelines. […] Three independent experiments counting cells from three different wells per concentration were performed. To analyzed cell death, neurons were fixed and stained with DAPI.

dNCS-1 [3] = biological target: T1, dNCS-1 (Drosophila melanogaster, UniProt Q9VWX8); test: tr-NOESY, DOSY and 1H-NMR of DCL mixtures in the presence of dNCS-1; assay type: binding; conditions: 281 K, up to 15 days
T1 construct: made in house; host or cells: E. coli
T1 sequence (Q9VWX8 1-187): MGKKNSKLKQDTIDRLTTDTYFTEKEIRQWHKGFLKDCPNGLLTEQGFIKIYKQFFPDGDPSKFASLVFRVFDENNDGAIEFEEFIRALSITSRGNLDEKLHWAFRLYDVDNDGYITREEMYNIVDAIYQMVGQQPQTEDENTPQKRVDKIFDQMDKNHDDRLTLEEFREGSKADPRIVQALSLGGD
Method: Fig. 4 HPLC-MS and NMR studies of the full dynamic combinatorial library. a DCL chromatograms after 5 h in the absence and in the presence of dNCS-1. Conditions: aldehyde 1 (1.2 µL, 50 mM), 2a–2e (3.6 µL, 50 mM), catalyst (1 µL, 12 M), dNCS-1:1 [1:1], Tris buffer (20 mM, pH 7.4), 1 mM CaCl2, 0.5 M NaCl, 1 mM DTT, T = 4 °C, 2% DMSO. DCC experiments were carried out in triplicate. b 1D-^1H NMR spectrum (red) of the mixture and DOSY experiment (black) of the DCL in the presence of dNCS-1 (281 K, 600 MHz). c Tr-NOESY spectrum of the DCL mixture in the presence of dNCS-1 (mixing time 200 ms, 281 K, 600 MHz). Amplification of the region δ 7.2–8.0 ppm. […]. The new signals that reveal the formation of 3b (aromatic region) and 2c (aliphatic region) are marked with stars. ^1H-STD-NMR (blue) and off-resonance (red) NMR spectra of the mixture 2b + 3c + dNCS-1 (281 K, 600 MHz) after 15 days
DOSY-NMR and tr-NOESY-NMR experiments were also recorded to follow the exchange process.
The experiments were performed on the same samples and spectrometer, at 281 K. The tr-NOESY mixing time was fixed at 200 ms. The DOSY experiments were acquired with 16 gradient increments to a final intensity decay of 90%.

dNCS-1 [4] = biological target: T1, dNCS-1; test: STD-NMR experiments with dNCS-1; assay type: binding; conditions: compound 1 mM, 10 μM dNCS-1, 281 K
Method: Fig. 5 ^1H-STD-NMR spectra of 3a–3e in the presence of dNCS-1. STD (blue) and off-resonance (red) NMR spectra acquired for compounds 3a–3e (1 mM) in the presence of 10 μM dNCS-1 (600 MHz, 281 K). Relative STD intensities are coded according to the color scale shown. The 100% STD signal corresponds to the resonance showing the highest intensity in each case and all other STD signals are calculated accordingly
The experiments were performed using a deuterated Tris (pH 7.9) buffered solution with an aliquot of DMSO-d6. A sample containing 10 μM of dNCS-1 and 1 mM of DCL species (molar ratio 1:100) was prepared. The STD experiments were acquired at 281 K on a Bruker Avance 600 MHz spectrometer equipped with a cryoprobe. […]. The same conditions were used for the acquisition of the STD-NMR spectra of the individual products with dNCS-1.

O=C(Cc1c[nH]c2ccccc12)NN=Cc1ccc([N+](=O)[O-])c(O)c1 (mixture of isomers) [3b]
solubility observed under the experimental conditions [1]: soluble
percentage of picnotic bodies, % exp 2 ([2]; 0.2 μM): 12%
percentage of picnotic bodies, % exp 3 ([2]; 0.2 μM): 10%
percentage of picnotic bodies, % exp.1 ([2]; 0.2 μM): 10.1%
percentage of picnotic bodies over total nuclei, average ([2]; 0.2 μM, DMSO 8.4): 10.7%
percentage of picnotic bodies, % exp 2 ([2]; 2 μM): 10%
percentage of picnotic bodies, % exp 3 ([2]; 2 μM): 10%
percentage of picnotic bodies, % exp.1 ([2]; 2 μM): 13.4%
percentage of picnotic bodies over total nuclei, average ([2]; 2 μM, DMSO 8.06667): 11.1333%
percentage of picnotic bodies, % exp 2 ([2]; 10 μM): 12.5%
percentage of picnotic bodies, % exp 3 ([2]; 10 μM): 15%
percentage of picnotic bodies, % exp.1 ([2]; 10 μM): 14.3%
percentage of picnotic bodies over total nuclei, average ([2]; 10 μM, DMSO 12.1667): 13.9333%
percentage of picnotic bodies, % exp 2 ([2]; 20 μM): 17.5%
percentage of picnotic bodies, % exp 3 ([2]; 20 μM): 22.6%
percentage of picnotic bodies, % exp.1 ([2]; 20 μM): 15.3%
percentage of picnotic bodies over total nuclei, average ([2]; 20 μM, DMSO 12): 18.4667%
cell toxicity in neurons compared with vehicle DMSO ([2]; 0.2, 2, 10, 20 μM): no significant differences
binding to dNCS-1 (1H-NMR evolution of the mixture 3c + 2b with dNCS-1) (dNCS-1 [3]): a dNCS-1 ligand
recognition by dNCS-1 in STD-NMR (dNCS-1 [4]): largest STD intensities
